Legend:
[1] = system: CFA-induced inflammatory pain model; test: CFA induced chronic inflammatory pain, von Frey mechanical paw withdrawal threshold; format: in vivo, rats; details: fourth day, 30 minutes post-dosing
Experimental: In this test, mechanical hyperalgesia is assessed with electronic von Frey filament by means of Electrovonfrey anesthesiometer (Model 2290, IITC Life Science, Woodland Hills, Calif.). Following a full week of acclimatization to the vivarium facility, 150 μL of the “Complete Freund's Adjuvant” (CFA) emulsion (CFA suspended in an oil/saline (1:1) emulsion at a final concentration of 0.5 mg/mL) was injected subcutaneously into the plantar surface of the left hind ankle joint of rats under light isoflurane anaesthesia. Animals were allowed to recover from the anaesthesia and the baseline mechanical nociceptive thresholds of all animals were assessed one week after the administration of CFA. All animals were habituated to the experimental chambers for 20 minutes on the day of the experiment. The animals were then randomly assigned to 5 different test groups including a vehicle control group and 4 pharmaceutical compositions with COMPOUND A at 1%, 2%, 4% and 8% (w/w) groups. After baseline measurements, animals were anaesthetized under isoflurane, shaved at the site of application, and then dosed by application of 50 mg test compositions on the entire ipsilateral hind ankle and foot. Animals were then placed in Plexiglas tubes for 30 minutes to prevent early removal/ingestion of drug. Test compositions were applied twice a day for 3 days. On the fourth day, immediately after application, animals were placed in tubes for 15 minutes and then removed and placed in Plexiglas enclosures for 15 minutes prior to making paw withdrawal measurements. Von Frey withdrawal thresholds were measured as the mean of several independent determinations made within 1-2 minutes of each other on the affected paw of each animal 30 minutes post-dosing. The time point used was previously determined to show the highest analgesic effect for each test composition.
The response thresholds of animals to tactile stimuli were measured using the Model 2290 Electrovonfrey anesthesiometer (IITC Life Science, Woodland Hills, Calif.). Animals were placed in an elevated Plexiglas enclosure set on a mire mesh surface. After 15 minutes of accommodation, a von Frey hair was applied perpendicularly to the plantar surface of the ipsilateral hind paws of the animals with sufficient force, measured in grams, to elicit a crisp response of the paw. The response indicated a withdrawal from the painful stimulus and constituted the efficacy endpoint.

[2] = systemic plasma concentration after topical or oral dosing in CCI rats (HPLC/MS/MS); format: in vivo, male Sprague Dawley rats; details: 8% (w/w) topical vs 25 mg/Kg oral, blood 10-15 minutes after efficacy time points, p<0.0001
Experimental: Blood samples were taken from the same animals immediately after withdrawal threshold measurements using the following procedure at approximately 10-15 minutes after their respective efficacy time points. The rats were bled by jugular vein puncture while under anaesthesia. The time at which each blood sample was drawn, relative to the time of dosing, was recorded. Each blood sample (˜150 μL) was collected into a heparin-coated, labelled microvette tube containing 10 μL of heparin (100 Units) and placed on ice immediately. The blood samples were centrifuged at 4° C. to separate the plasma. The plasma was transferred to labelled tubes and snap-frozen in liquid nitrogen for storage at −80° C. At the time of analysis, the plasma was thawed and extracted using solid phase extraction, and the plasma drug concentration was quantified by HPLC/MS/MS.

sodium channel = test: guanidine influx assay disclosed in WO 06/110917; format: cell-based; details: read-out: IC50, inhibition of ion flux through a sodium channel
From the text: The IC50 (“Inhibitory Concentration—50%”) is a measure of the amount of compound required to achieve 50% inhibition of ion flux through a sodium channel, over a specific time period, in an assay of the invention.

[3] = system: STZ-induced neuropathic pain model; test: STZ model of diabetic neuropathy, von Frey; format: in vivo, male Sprague-Dawley rats; details: 4% (w/w) topical composition, 50 mg on left foot, 30 minutes post-dosing, p<0.05
From the text: This study evaluates the efficacy of a pharmaceutical composition of the invention in the STZ-induced neuropathic pain model in male Sprague-Dawley rats, following acute dosing, as compared with a 5% (w/v) topical Lidocaine (Xylocaine®) and a 1.16% (w/v) topical Diclofenac (Voltaren®). A rodent model of painful peripheral diabetic neuropathy (PDN) that mimics human condition was created by inducing a diabetic state in the rat through the ablation of the insulin producing pancreatic beta cells. A single streptozotocin (STZ) injection destroys beta cells in rats and produces a diabetic state that over time progresses to painful Peripheral Diabetic Neuropathy (PDN).
Streptozotocin (STZ) was dissolved in citrate buffer (20 mM, pH 4.5) and administered at a dose of 60 mg/Kg, intraperitoneal, to induce pancreatic beta-cell death. Blood glucose level was measured once a week following injection, using the AccuSoft Blood Glucose Monitoring System. […] Hyperalgesia and allodynia, which are signs of diabetic neuropathic pain, were monitored using the von Frey test as described below. Von Frey measurements were recorded from both left and right paws. Only those with significant hyperalgesia as determined by reduced threshold, measured in grams, of paw withdrawal to the von Frey filament were enrolled in the study. […] During this time their health status was closely monitored.
The animals were randomly divided into 4 test groups (n=7 animals/group) including a vehicle control, a 5% (w/v) Lidocaine (Xylocaine®), a 1.16% (w/v) Diclofenac (Voltaren®), and a pharmaceutical composition with 4% (w/w) COMPOUND A. After baseline measurement, 50 mg of the test composition was applied on the entire left foot. […] The paw withdrawal thresholds of animals from mechanical tactile stimuli were measured using the Electrovonfrey anesthesiometer (Model 2290, IITC Life Science, Woodland Hills, Calif.). […] The force (g) required to elicit a crisp withdrawal response was recorded before dosing as a baseline measurement, and at 30 minutes post-dosing. […]

plasma level in topical dosage group lower than in oral dosage group (fold) [2]: ~20 × | IC50 (sodium channel): < 1000 nM
Structure (SMILES): O=C1N(Cc2ccc(C(F)(F)F)o2)c2ccccc2[C@]12COc1cc3c(cc12)OCO3 [COMPOUND A, (S)-1′-{[5-(trifluoromethyl)furan-2-yl]methyl}spiro[furo[2,3-f][1,3]benzodioxole-7,3′-indol]-2′(1′H)-one]
von Frey mechanical paw withdrawal threshold, percent CFB ([1]; 1% (w/w) topical composition): did not demonstrate an observable increase | von Frey mechanical paw withdrawal threshold, percent CFB ([1]; 2% (w/w) topical composition): statistically significant increases | von Frey mechanical paw withdrawal threshold, percent CFB ([1]; 4% (w/w) topical composition): statistically significant increases | von Frey mechanical paw withdrawal threshold, percent change from baseline (CFB) ([1]; 8% (w/w) topical composition, 50 mg twice a day for 3 days): +45.1% | von Frey mechanical paw withdrawal threshold, percent CFB ([1]; 8% (w/w) topical composition): statistically significant increases | paw withdrawal threshold of treated paw, percent mean change from baseline (CFB) [3]: 44.9%

Source: patent publication US9504671B2, “Pharmaceutical compositions of spiro-oxindole compound for topical administration and their use as therapeutic agents” (Xenon Pharmaceuticals Inc., priority 2010, dated 2016)
